Source: patent publication EP1518554A1, “Pharmaceutical composition for the treatment of hyperhomocysteinemia” (Medosan Industrie Biochimiche Riunite S.r.l., priority 2003, dated 2005)

Tested on: homocysteine ematic level
Experiment: Randomised clinical study in patients with hyperhomocysteinemia; plasma homocysteine determined by immunoenzymatic test (EIA) at enrolment and after 30 days of treatment
Type: in vivo
Source text: Assessments about the pharmacological effectiveness of the composition according to the present invention have been carried out according to the following study protocol.
The experimentation has examined a total number of 60 patients assigned to one of the two treatment groups (30 patients to group A and 30 patients to group B).
• Patients of both sexes • Age older than 18 • Homocysteinemia level >15 µmol/l
• Patients suffering from diseases interfering with the homocysteine dosage • Patients in therapy with drugs interfering with the homocysteine metabolism (isoniazid, antiepileptic, methotrexate) • Subjects with ascertained individual hypersensitivity towards the active principles and/of the excipients of the product • Women during pregnancy or puerperium • Patients suffering from diabetes mellitus […]
The obtained data have been assessed statistically withe Student's t test and the significance is expressed as follows: P<0.05*; P<0.01**; P<0.001***

Substance: arginine glutamate
- reduction in the homocysteine plasmatic levels (general statement of the applicant's experimental data, dose and duration not stated at the place): 10-15%
- reduction in the homocysteine plasmatic values (patients with homocysteinemia >15 µmol/l, 10-ml small bottle which can be drunk, twice a day for 30 days, 30 patients per group, Student's t test (composition 9 p≤0.001; arginine glutamate only p≤0.01)): 12%
